Data published in ChEMBL document CHEMBL1201862, “PubChem BioAssay data set” (2004).
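Cultured in 96-well plates, cells were exposed to test compound for 48 hours across five concentrations. Abbreviation: GI50, concentration required for 50% inhibition of growth.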 Calls of active or inactive are those of the source. Rule as the data show it: active = GI50 up to about 1.1 µM and inactive = higher.

Legend:
Assay in all cases: growth of human tumour cells (NCI), 48 h
CAKI-1 = tested on: CAKI-1
HCT-116 = tested on: HCT-116
TK-10 = tested on: TK-10
UACC-62 = tested on: UACC-62
SK-MEL-5 = tested on: SK-MEL-5
U-251 = tested on: U-251
SK-OV-3 = tested on: SK-OV-3
A549 = tested on: A549
RXF 393 = tested on: RXF 393
NCI-H226 = tested on: NCI-H226
PC-3 = tested on: PC-3
NCI/ADR-RES = tested on: NCI/ADR-RES
HCC 2998 = tested on: HCC 2998
DU-145 = tested on: DU-145
SK-MEL-28 = tested on: SK-MEL-28
SW-620 = tested on: SW-620
MDA-MB-231 = tested on: MDA-MB-231
BT-549 = tested on: BT-549
NCI-H23 = tested on: NCI-H23
MDA-MB-435 = tested on: MDA-MB-435
T47D = tested on: T47D
SNB-75 = tested on: SNB-75
OVCAR-5 = tested on: OVCAR-5
SNB-19 = tested on: SNB-19
SF-268 = tested on: SF-268
OVCAR-3 = tested on: OVCAR-3
NCI-H460 = tested on: NCI-H460
A498 = tested on: A498
KM12 = tested on: KM12
RPMI-8226 = tested on: RPMI-8226
MCF7 = tested on: MCF7
COLO 205 = tested on: COLO 205
EKVX = tested on: EKVX
M14 = tested on: M14
SF-295 = tested on: SF-295
UO-31 = tested on: UO-31
HCT-15 = tested on: HCT-15
HOP-62 = tested on: HOP-62
LOX IMVI = tested on: LOX IMVI
SK-MEL-2 = tested on: SK-MEL-2
OVCAR-4 = tested on: OVCAR-4
HOP-92 = tested on: HOP-92
786-0 = tested on: 786-0
ACHN = tested on: ACHN
CCRF-CEM = tested on: CCRF-CEM
UACC-257 = tested on: UACC-257
K562 = tested on: K562
Malme-3M = tested on: Malme-3M
SR = tested on: SR
SN12C = tested on: SN12C
NCI-H522 = tested on: NCI-H522
HT-29 = tested on: HT-29
IGROV-1 = tested on: IGROV-1
MDA-N = tested on: MDA-N
OVCAR-8 = tested on: OVCAR-8
MOLT-4 = tested on: MOLT-4
Hs-578T = tested on: Hs-578T
SF-539 = tested on: SF-539
HL-60 = tested on: HL-60

`CN(C)C(=O)C(F)(F)C(c1ccc(C(F)(F)F)cc1)C1C(=O)N(C)C(=O)N(C)C1=O` (stereo not drawn) was tested, and the GI50 (CAKI-1) was > 100 µM (inactive), the GI50 (HCT-116) was > 100 µM (inactive) and the GI50 (TK-10) was > 100 µM (inactive). For the same molecule, the GI50 (UACC-62) was > 100 µM (inactive), the GI50 (SK-MEL-5) was > 100 µM (inactive) and the GI50 (U-251) was > 100 µM (inactive). For the same molecule, the GI50 (SK-OV-3) was > 100 µM (inactive), the GI50 (A549) was > 100 µM (inactive) and the GI50 (RXF 393) was 78.3 µM (inactive). The GI50 (NCI-H226) was > 100 µM (inactive), the GI50 (PC-3) was > 100 µM (inactive) and the GI50 (NCI/ADR-RES) was > 100 µM (inactive). For the same molecule, the GI50 (HCC 2998) was > 100 µM (inactive), the GI50 (DU-145) was > 100 µM (inactive) and the GI50 (SK-MEL-28) was > 100 µM (inactive). The GI50 (SW-620) was > 100 µM (inactive), the GI50 (MDA-MB-231) was > 100 µM (inactive) and the GI50 (BT-549) was > 100 µM (inactive). For the same molecule, the GI50 (NCI-H23) was > 100 µM (inactive), the GI50 (MDA-MB-435) was > 100 µM (inactive) and the GI50 (T47D) was > 100 µM (inactive). The GI50 (SNB-75) was > 100 µM (inactive), the GI50 (OVCAR-5) was > 100 µM (inactive) and the GI50 (SNB-19) was > 100 µM (inactive). The GI50 (SF-268) was > 100 µM (inactive), the GI50 (OVCAR-3) was > 100 µM (inactive) and the GI50 (NCI-H460) was > 100 µM (inactive). For the same molecule, the GI50 (A498) was > 100 µM (inactive), the GI50 (KM12) was > 100 µM (inactive) and the GI50 (RPMI-8226) was > 100 µM (inactive). The GI50 (MCF7) was > 100 µM (inactive), the GI50 (COLO 205) was > 100 µM (inactive) and the GI50 (EKVX) was > 100 µM (inactive). The GI50 (M14) was > 100 µM (inactive), the GI50 (SF-295) was > 100 µM (inactive) and the GI50 (UO-31) was > 100 µM (inactive). For the same molecule, the GI50 (HCT-15) was > 100 µM, the GI50 (HOP-62) was > 100 µM (inactive) and the GI50 (LOX IMVI) was > 100 µM (inactive). The GI50 (SK-MEL-2) was > 100 µM (inactive), the GI50 (OVCAR-4) was > 100 µM (inactive) and the GI50 (HOP-92) was > 100 µM (inactive). The GI50 (786-0) was > 100 µM (inactive), the GI50 (ACHN) was > 100 µM (inactive) and the GI50 (CCRF-CEM) was > 100 µM (inactive). For the same molecule, the GI50 (UACC-257) was > 100 µM (inactive).

In the case of `O=C1CSC(c2ccc([N+](=O)[O-])cc2)N1c1nc(-c2ccc3c(c2)CCCC3)cs1` (stereo not drawn), the GI50 (CAKI-1) is reported as > 100 µM (inactive), the GI50 (HCT-116) is reported as > 100 µM (inactive) and the GI50 (TK-10) is reported as > 100 µM (inactive). For the same molecule, the GI50 (UACC-62) was 63.1 µM (inactive), the GI50 (SK-MEL-5) was 51.1 µM (inactive) and the GI50 (U-251) was > 100 µM (inactive). For the same molecule, the GI50 (K562) was > 100 µM (inactive), the GI50 (RXF 393) was > 100 µM (inactive) and the GI50 (NCI-H226) was > 100 µM (inactive). For the same molecule, the GI50 (PC-3) was > 100 µM (inactive), the GI50 (Malme-3M) was > 100 µM (inactive) and the GI50 (NCI/ADR-RES) was > 100 µM (inactive). The GI50 (HCC 2998) was > 100 µM (inactive), the GI50 (SR) was > 100 µM (inactive) and the GI50 (DU-145) was > 100 µM (inactive). The GI50 (SK-MEL-28) was > 100 µM (inactive), the GI50 (SW-620) was > 100 µM (inactive) and the GI50 (MDA-MB-231) was 70.1 µM (inactive). For the same molecule, the GI50 (BT-549) was 94.6 µM (inactive), the GI50 (NCI-H23) was > 100 µM (inactive) and the GI50 (MDA-MB-435) was 33.4 µM (inactive). For the same molecule, the GI50 (SNB-75) was 86.9 µM (inactive), the GI50 (OVCAR-5) was > 100 µM (inactive) and the GI50 (SN12C) was > 100 µM (inactive). The GI50 (SNB-19) was > 100 µM (inactive), the GI50 (SF-268) was > 100 µM (inactive) and the GI50 (NCI-H522) was > 100 µM (inactive). The GI50 (OVCAR-3) was > 100 µM (inactive), the GI50 (NCI-H460) was > 100 µM (inactive) and the GI50 (HT-29) was > 100 µM (inactive). For the same molecule, the GI50 (A498) was > 100 µM (inactive), the GI50 (KM12) was > 100 µM (inactive) and the GI50 (IGROV-1) was 25.1 µM (inactive). The GI50 (RPMI-8226) was > 100 µM (inactive), the GI50 (MCF7) was 31.7 µM (inactive) and the GI50 (MDA-N) was > 100 µM (inactive). For the same molecule, the GI50 (COLO 205) was > 100 µM (inactive), the GI50 (OVCAR-8) was > 100 µM (inactive) and the GI50 (EKVX) was > 100 µM (inactive). The GI50 (SF-295) was > 100 µM (inactive), the GI50 (UO-31) was > 100 µM (inactive) and the GI50 (HCT-15) was > 100 µM. For the same molecule, the GI50 (MOLT-4) was > 100 µM (inactive), the GI50 (Hs-578T) was > 100 µM (inactive) and the GI50 (HOP-62) was > 100 µM (inactive). For the same molecule, the GI50 (SF-539) was 27.2 µM (inactive), the GI50 (LOX IMVI) was 25.1 µM (inactive) and the GI50 (SK-MEL-2) was 39.5 µM (inactive). The GI50 (OVCAR-4) was > 100 µM (inactive), the GI50 (786-0) was > 100 µM (inactive) and the GI50 (HL-60) was > 100 µM (inactive). The GI50 (ACHN) was > 100 µM (inactive) and the GI50 (UACC-257) was > 100 µM (inactive).

`C1=CN2C[n+]3cccc(OCc4ccccc4)c3N=C2C(OCc2ccccc2)=C1` was tested, and the GI50 (CAKI-1) was 22 µM (inactive), the GI50 (HCT-116) was 23.3 µM (inactive) and the GI50 (TK-10) was 56 µM (inactive). The GI50 (UACC-62) was 11.9 µM (inactive), the GI50 (SK-MEL-5) was 5 µM (inactive) and the GI50 (U-251) was 4.51 µM (inactive). The GI50 (SK-OV-3) was > 100 µM (inactive), the GI50 (A549) was 19.5 µM (inactive) and the GI50 (K562) was < 0.01 µM (active). The GI50 (RXF 393) was 44.9 µM (inactive), the GI50 (NCI-H226) was 29.4 µM (inactive) and the GI50 (PC-3) was 26.5 µM (inactive). The GI50 (Malme-3M) was 12.3 µM (inactive), the GI50 (NCI/ADR-RES) was > 100 µM (inactive) and the GI50 (HCC 2998) was 5.83 µM (inactive). The GI50 (DU-145) was 6.92 µM (inactive), the GI50 (SK-MEL-28) was 14.2 µM (inactive) and the GI50 (SW-620) was 11.9 µM (inactive). For the same molecule, the GI50 (MDA-MB-231) was 16.8 µM (inactive), the GI50 (BT-549) was 0.344 µM (active) and the GI50 (NCI-H23) was 10.3 µM (inactive). For the same molecule, the GI50 (MDA-MB-435) was 14.4 µM (inactive), the GI50 (T47D) was 12.8 µM (inactive) and the GI50 (SNB-75) was 20.1 µM (inactive). For the same molecule, the GI50 (OVCAR-5) was 52 µM (inactive), the GI50 (SN12C) was 3.43 µM (inactive) and the GI50 (SNB-19) was 5.18 µM (inactive). The GI50 (SF-268) was 6.25 µM (inactive), the GI50 (NCI-H522) was 2.65 µM (inactive) and the GI50 (OVCAR-3) was 5.14 µM (inactive). For the same molecule, the GI50 (NCI-H460) was 32.6 µM (inactive), the GI50 (HT-29) was 8.04 µM (inactive) and the GI50 (A498) was 85.9 µM (inactive). The GI50 (IGROV-1) was 11.5 µM (inactive), the GI50 (RPMI-8226) was 2.84 µM (inactive) and the GI50 (MCF7) was 13.5 µM (inactive). For the same molecule, the GI50 (COLO 205) was 3.88 µM (inactive), the GI50 (OVCAR-8) was 17.4 µM (inactive) and the GI50 (EKVX) was 24.2 µM (inactive). For the same molecule, the GI50 (M14) was 16.4 µM (inactive), the GI50 (SF-295) was 6.84 µM (inactive) and the GI50 (UO-31) was > 100 µM (inactive). The GI50 (HCT-15) was > 100 µM, the GI50 (Hs-578T) was 2.36 µM (inactive) and the GI50 (HOP-62) was 17.6 µM (inactive). For the same molecule, the GI50 (SF-539) was 4.25 µM (inactive), the GI50 (LOX IMVI) was 20.8 µM (inactive) and the GI50 (SK-MEL-2) was 11.7 µM (inactive). For the same molecule, the GI50 (OVCAR-4) was 4.81 µM (inactive), the GI50 (HOP-92) was 12.5 µM (inactive) and the GI50 (786-0) was 15.3 µM (inactive). The GI50 (HL-60) was 0.142 µM (active), the GI50 (ACHN) was > 100 µM (inactive) and the GI50 (UACC-257) was 8.71 µM (inactive).
